# Measured values taken from patent publication US9625444B2, “Artificial immune system: methods of use” (Sanofi Pasteur VaxDesign Corporation, priority 2004, dated 2017).
# Legend:
# [1] = test system: human monocytes and dendritic cells; assay: in vitro chemotaxis towards chemoattractant-releasing PLGA microspheres; assay type: cell-based; conditions: PLGA microspheres releasing the chemoattractant
# From the text: FIG. 7A is a schematic representation of the experimental design. […] FIGS. 7C and 7D show the movement of monocyte-derived DCs and monocytes, respectively, towards the vaccination site source well.
# PLGA (poly(lactide-co-glycolide)) microspheres provide steady controlled release of encapsulated chemokines. […] Synthetic inverse opal hydrogel scaffolds were synthesized that support T-cell migration and interaction with B cells (FIG. 8A), and support attachment and growth of high cell densities, which is an important feature in mimicking the microenvironment of the lymph node (FIG. 8B).
# human monocytes [2] = conditions: known value used for comparison; cited from earlier work
# human monocytes [3] = assay: rapid chemokine testing system (lateral motility / chemotaxis of cells); assay type: cell-based
# Experimental: The BioAssembly Tool (BAT) has been modified for use in observations of the lateral motility of cells in experiments on chemotaxis. The described setup enables rapid screening of chemokines and cell matrices (typically, one experiment can take about half to one hour).
# Three chemokines, fMLP-FITC; […], and MIP-3β, were tested with human monocytes. […] MIP-3β was found ineffective (as expected for immature monocytes); MIP-3α was found effective, despite negative information and expectations. […] Thus, fibrin matrices should be used preferably in cases when cell retention is required, and collagen should be used to make cell-permeable barriers. This latter observation may be important when considering the use of ETCs for wound healing procedures. This system can be used to further refine and optimize chemokine doses using various microparticle strategies and formulations, temporal release characteristics, and scaffold characteristics (e.g., geometry, porosity, material) on cell migration.
# The rapid chemokine testing system can be used to examine saturation of cell receptors by chemokines. When a chemokine reaches its saturating concentration, cells become insensitive to the signal and stop their locomotion. In most cases, chemotaxis occurs through gradients of chemokines.
# monocytes = assay: monocyte attraction to implanted extracellular matrix scaffold; assay type: in vivo; conditions: mouse
compound,measurement,setting,value
"CSCC[C@H](NC=O)C(=O)N[C@@H](CC(C)C)C(=O)N[C@@H](Cc1ccccc1)C(=O)O [fMLP, N-formyl-methionyl-leucyl-phenylalanine]",movement of cells towards releasing microspheres,[1],move towards microspheres
same,saturation level known,human monocytes [2],~30 nM
MIP-3α: chemokine (macrophage inflammatory protein-3) tested with human monocytes,effectiveness of the chemokine,human monocytes [3],effective
"MIP-3β: macrophage inflammatory protein-3β, a 10 kDa chemoattractant chemokine",effectiveness of the chemokine,human monocytes [3],ineffective
same,attraction of monocytes (immunohistochemical staining),monocytes,attracted
N-formyl-methionyl-leucyl-phenylalanine-fluorescein isothiocyanate [fMLP FITC],saturation level,human monocytes [3],~40 nM
